Measured values reported in US7531573B2 (priority 1994, dated 2009).
Where two headings read alike, the source gives them in different places.

What was measured:
[1] = test system: NIH 3T3 mouse fibroblast cells; assay: Mitogen-induced cell proliferation; assay type: cell-based; settings: for inhibition at 10 µM: NIH3T3, read-out: Mitogen-induced cell proliferation % Inhibition; for IC50: NIH3T3, read-out: Mitogen-induced cell proliferation IC50
Description: Other cell lines, e.g., cancer cells, endothelial cells and fibroblasts, as well as many others, may be used in the cell proliferation assay. Selection of a particular cell line will depend in part on the desired application, and is well within the capabilities of an ordinarily skilled artisan.

[2] = biological target: Gardos channel of erythrocytes (Homo sapiens, UniProt O15554); assay: cell-based; settings: for inhibition at 10 µM: read-out: Gardos Channel % Inhibition
Chain of Gardos channel of erythrocytes (O15554 whole entry): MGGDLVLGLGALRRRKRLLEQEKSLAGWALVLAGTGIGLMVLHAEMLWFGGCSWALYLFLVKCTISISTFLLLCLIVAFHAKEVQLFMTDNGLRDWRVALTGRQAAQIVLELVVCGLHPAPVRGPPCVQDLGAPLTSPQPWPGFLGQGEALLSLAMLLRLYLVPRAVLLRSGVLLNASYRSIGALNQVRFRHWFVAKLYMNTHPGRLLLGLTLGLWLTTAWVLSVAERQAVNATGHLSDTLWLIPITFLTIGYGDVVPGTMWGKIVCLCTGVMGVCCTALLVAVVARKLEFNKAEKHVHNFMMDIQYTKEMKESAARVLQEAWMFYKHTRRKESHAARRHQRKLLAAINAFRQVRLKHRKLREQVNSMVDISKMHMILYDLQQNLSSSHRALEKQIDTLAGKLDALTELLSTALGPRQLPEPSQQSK

clinical = assay type: in vivo; settings: human, in vivo, read-out: Levels Plasma; for concentration at 6 day of CLT dosing: CLT day 6; for concentration at 10 day (wash-out): Wash-out day 10; for concentration at 13 day (wash-out): Wash-out day 13; for concentration at 20 day (wash-out): Wash-out day 20
[3] = erythrocytes, read-out: Gardos Channel IC50
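For Levels Plasma in this document: oral tablet given every 12 h for six days, about 14 mg/kg per day for this subject, with levels then followed in plasma.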

Row | Structure (SMILES) | inhibition at 10 µM [1] | IC50 [2, 3] | inhibition at 10 µM [2] | melting point | IC50 [1] | IC50 [2] | further results
1 | NC(=O)C(c1ccccc1)(c1ccccc1)c1ccccc1Cl [Compound 75, (2-chlorophenyl)-diphenylacetamide] | 90% | 6 nM | 98% | 197 to 198.5 °C | – | – | –
2 | Clc1ccccc1C(c1ccccc1)c1ccccc1 [Compound 17, 2-chlorophenyl-diphenylmethane] | 91.8% | – | 100% | 74 to 76 °C | 3900 nM | 860 nM | concentration at 6 day of CLT dosing (clinical; 500 mg, Subject A): 1800 nM; concentration at 6 day (wash-out) (clinical; 500 mg, Subject A, Wash-out day 6): < 100 nM; concentration at 10 day (wash-out) (clinical; 500 mg, Subject A): < 100 nM; concentration at 13 day (wash-out) (clinical; 500 mg, Subject A): 0 nM; concentration at 20 day (wash-out) (clinical; 500 mg, Subject A): 0 nM; concentration at 3 day of CLT dosing (clinical; 500 mg, Subject B, CLT day 3): 1650 nM; concentration at 6 day of CLT dosing (clinical; 500 mg, Subject B): 2500 nM; concentration at 8 day (wash-out) (clinical; 500 mg, Subject B, Wash-out day 8): < 100 nM; concentration at 10 day (wash-out) (clinical; 500 mg, Subject B): < 100 nM; concentration at 13 day (wash-out) (clinical; 500 mg, Subject B): 0 nM; concentration at 20 day (wash-out) (clinical; 500 mg, Subject B): 0 nM; concentration at 3 day of CLT dosing (clinical; Subject A, CLT day 3, oral CLT 500 mg every twelve hours): 700 nM
3 | N#CC(c1ccccc1)(c1ccccc1)C1CCCCC1 [Compound 89, cyclohexyl-diphenylacetonitrile] | 98% | 6130 nM | 70.2% | 117.5 to 119 °C | 900 nM | – | –
4 | N#CC(c1ccccc1)(c1ccccc1)c1ccccc1F [Compound 32, (2-fluorophenyl)-diphenylacetonitrile] | 54% | – | 95.7% | 144 to 145 °C | – | 68 nM | –
5 | NC(=O)CC(c1ccc(Cl)cc1)(c1ccc(Cl)cc1)c1ccc(Cl)cc1 [Compound 30, tris(4-chlorophenyl)propionamide] | 99% | – | 97% | 158 to 160 °C | 900 nM | 272 nM | –
6 | O=C(O)CC(c1ccccc1)(c1ccccc1)c1ccccc1Cl [Compound 36, 3-(2-chlorophenyl)-3,3-diphenylpropionic acid] | 92% | 3110 nM | 78.6% | 180 to 182 °C | 600 nM | – | –
7 | O=CC(c1ccccc1)(c1ccccc1)c1ccccc1 [Compound 16, triphenylacetaldehyde] | 99.4% | 87 nM | 98% | 91 to 96 °C | 400 to 2000 nM | – | –
8 | C1=CC(=P(c2ccccc2)(c2ccccc2)c2ccccc2)C=C1 [Compound 10] | 25.5% | 957 nM | 89.7% | – | 4800 nM | – | –
9 | N#CCC(c1ccc(Cl)cc1)(c1ccc(Cl)cc1)c1ccc(Cl)cc1 [Compound 26] | 99% | – | 10% | – | 1300 nM | – | –
10 | OC(c1ccccc1)(c1ccccc1)c1ccc(Cl)cc1 [Compound 43] | 99% | – | 99% | – | 800 nM | 61 nM | –
11 | OC(c1ccccc1)(c1ccccc1)C1CCCCC1 [Compound 88, cyclohexyl-diphenylmethanol] | 94% | 862 nM | 99% | 76 to 78 °C | 9500 nM | – | –
12 | NC(c1ccccc1)(c1ccccc1)c1ccccc1 [Compound 5] | 66% | – | 86% | – | 1280 nM | 1650 nM | –
13 | Cc1ccc(C(O)(c2ccc(C)cc2)c2ccc(C)cc2)cc1 [Compound 59] | 98% | – | 100% | – | 3000 nM | 489 nM | –
14 | O=CCC(c1ccccc1)(c1ccccc1)c1ccccc1 [Compound 38] | 99% | 220 nM | 92% | – | 800 to 2300 nM | – | –
15 | O=CCC(c1ccccc1)(c1ccccc1)c1ccccc1Cl [Compound 79, 3-(2′-chlorophenyl)-3,3-diphenylpropanal] | 99% | 83 nM | 96% | 92 to 93 °C | 2700 nM | – | –
16 | O=CC(c1ccccc1)(c1ccccc1)c1ccccc1Cl [Compound 15, 2-chlorophenyl-diphenylacetaldehyde] | 88.6% | 96.8 nM | 100% | 126 to 129 °C | 2600 nM | – | –

Row | Structure (SMILES) | inhibition at 10 µM [1] | IC50 [2, 3] | inhibition at 10 µM [2] | melting point | IC50 [1] | IC50 [2] | further results
17 | OCC(c1ccccc1)(c1ccccc1)c1ccccc1 [Compound 35] | 38% | – | 95.8% | – | – | 430 nM | –
18 | COc1ccc(C(O)(c2ccccc2)c2ccccc2Cl)cc1 (stereo not shown) [Compound 81] | 53% | 187 nM | 100% | – | – | – | –
19 | COc1ccc(C(O)(c2ccccc2)c2ccccc2)cc1 [Compound 60] | 31% | – | 98% | – | – | 304 nM | –
20 | OCCCC[Si](c1ccccc1)(c1ccccc1)c1ccccc1 [Compound 73] | 99% | – | 98.9% | – | 2500 nM | 371 nM | –
21 | CCOC(=O)C(C(=O)OCC)C(c1ccccc1)(c1ccccc1)c1ccccc1Cl [Compound 33] | 45% | – | 100% | – | – | 125 nM | –
22 | ClC(c1ccccc1)(c1ccccc1)c1ccccc1 [Compound 2] | 64.8% | – | 99.4% | – | – | 459 nM | –
23 | Brc1ccc(C(c2ccccc2)c2ccc(Br)cc2)cc1 [Compound 66] | 73% | – | 67.2% | – | – | 384 nM | –
24 | CCOC(=O)C(C(=O)OCC)C(c1ccccc1)(c1ccccc1)c1ccccc1 [Compound 31] | 89% | – | 99% | – | 2600 nM | 445 nM | –
25 | CCOC(=O)C(c1ccccc1)(c1ccccc1)c1ccccc1 [Compound 47] | 99% | 193 nM | 100% | – | 800 nM | – | –
26 | CCC(c1ccccc1)(c1ccccc1)c1ccc(O)cc1 [Compound 67] | 98% | 430 nM | 96.1% | – | 1400 nM | – | –
27 | C#C[Si](c1ccccc1)(c1ccccc1)c1ccccc1 [Compound 44] | 82% | – | 79.4% | – | – | 388 nM | –
28 | OC(c1ccccc1)(c1ccc(Br)cc1)c1ccc(Br)cc1 [Compound 50] | 99% | – | 100% | – | 500 nM | 288 nM | –
29 | O=C(CBr)C(c1ccccc1)(c1ccccc1)c1ccccc1 [Compound 69] | 99% | 25 nM | 100% | – | – | – | –
30 | NCCC(c1ccc(Cl)cc1)(c1ccc(Cl)cc1)c1ccc(Cl)cc1 [Compound 41] | 99% | 2070 nM | 97% | – | 1400 nM | – | –
31 | Oc1ccc(C(O)(c2ccccc2)c2ccccc2Cl)cc1 (stereo not drawn) [Compound 84, α-(2-chlorophenyl)-α-(4-hydroxyphenyl)benzyl alcohol] | 99% | – | 95.3% | 56.5 to 60 °C | 1000 nM | 1270 nM | –
